Experimental data reported in patent US8901129B2, “Methods of facilitating neural cell survival using GDNF family ligand (GFL) mimetics or RET signaling pathway activators” (GeneCode AS, priority 2009, dated 2014).

Experiments:
[1] = molecular target: T1, GFRα1/RET (Homo sapiens, UniProt P07949+P56159); test: RET phosphorylation by BT compounds, IP and Western blotting (FIG. 6A); format: cell-based; details: 100 μM, 15 min; MG87 RET fibroblasts transfected with GFRα1
T1 construct: Full-length human GFRα1 cDNA (Sidorova et al., unpublished) subcloned in pcDNA6; expressed in transfected cells; host or cells: MG87RET murine fibroblasts transiently transfected with GFRα1
T1 sequence (P56159 25-429 limits assumed, species assumed): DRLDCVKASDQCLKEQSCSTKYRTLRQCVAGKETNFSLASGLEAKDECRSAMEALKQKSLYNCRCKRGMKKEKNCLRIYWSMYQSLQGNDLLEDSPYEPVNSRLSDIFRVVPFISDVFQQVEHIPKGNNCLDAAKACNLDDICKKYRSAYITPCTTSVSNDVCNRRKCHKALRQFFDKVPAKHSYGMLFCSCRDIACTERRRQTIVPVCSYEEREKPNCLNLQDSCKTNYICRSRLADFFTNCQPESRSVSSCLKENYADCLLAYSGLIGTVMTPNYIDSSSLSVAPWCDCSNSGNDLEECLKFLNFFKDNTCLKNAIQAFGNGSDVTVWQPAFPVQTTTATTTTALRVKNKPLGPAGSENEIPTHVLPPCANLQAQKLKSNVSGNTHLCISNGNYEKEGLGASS
T1 sequence (P07949 29-1114, species assumed): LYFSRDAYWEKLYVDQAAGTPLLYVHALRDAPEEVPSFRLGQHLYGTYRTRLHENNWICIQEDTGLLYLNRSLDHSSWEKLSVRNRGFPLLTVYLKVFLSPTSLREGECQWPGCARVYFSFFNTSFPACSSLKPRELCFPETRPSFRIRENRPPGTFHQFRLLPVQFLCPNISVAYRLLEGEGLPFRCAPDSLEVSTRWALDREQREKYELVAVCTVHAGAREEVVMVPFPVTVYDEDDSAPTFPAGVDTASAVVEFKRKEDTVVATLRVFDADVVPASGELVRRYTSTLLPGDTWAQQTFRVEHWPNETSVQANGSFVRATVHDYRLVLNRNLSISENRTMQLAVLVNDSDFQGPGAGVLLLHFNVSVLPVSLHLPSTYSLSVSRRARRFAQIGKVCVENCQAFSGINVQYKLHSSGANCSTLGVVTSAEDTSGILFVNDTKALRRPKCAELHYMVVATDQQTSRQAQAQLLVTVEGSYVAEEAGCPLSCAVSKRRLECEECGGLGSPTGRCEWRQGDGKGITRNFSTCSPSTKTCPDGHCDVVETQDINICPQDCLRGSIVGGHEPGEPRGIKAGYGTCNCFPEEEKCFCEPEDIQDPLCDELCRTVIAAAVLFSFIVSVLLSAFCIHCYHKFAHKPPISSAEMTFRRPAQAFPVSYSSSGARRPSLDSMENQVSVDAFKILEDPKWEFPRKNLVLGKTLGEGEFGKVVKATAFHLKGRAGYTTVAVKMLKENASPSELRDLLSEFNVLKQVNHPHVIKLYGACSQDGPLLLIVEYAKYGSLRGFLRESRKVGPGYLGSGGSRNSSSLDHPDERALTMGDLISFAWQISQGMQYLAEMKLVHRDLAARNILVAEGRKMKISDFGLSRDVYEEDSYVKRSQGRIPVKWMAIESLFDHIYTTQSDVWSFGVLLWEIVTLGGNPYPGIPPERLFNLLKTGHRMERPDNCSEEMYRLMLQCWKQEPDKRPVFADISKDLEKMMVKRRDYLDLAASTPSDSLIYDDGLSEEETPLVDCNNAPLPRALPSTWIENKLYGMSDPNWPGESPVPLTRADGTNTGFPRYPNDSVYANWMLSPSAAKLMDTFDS
Protocol: (§1) MG87RET cells were plated on 35 mm tissue culture dishes the day before the experiment. Cells were transfected with GFRα1, GFRα3 or with an vector encoding for GFP. On the day of the experiment cells were starved for 4 hours in serum-free DMEM and stimulated with the investigated compounds (structures shown in the description of FIG. 6, above) at 100 μM concentration or with 100 ng/ml of GDNF or ARTN (positive control) for 15 min. Then cells were washed once with ice-cold PBS containing 1 mM Na3VO4 and lysed on ice in 1 ml per well of RIPA-modified buffer (50 mM Tris-HCl, pH 7.4, 150 mM NaCl, 1 mM EDTA, 1% NP-40, 1% TX-100, 10% glycerol, EDTA-free protease inhibitor cocktail (Roche), 1 mM Na3VO4, 2.5 mg/ml of sodium deoxycholate, 1 mM PMSF. Ret was immunoprecipitated by anti-RET C-20 antibodies (Santa-Cruz Biotechnology, Inc.). Precipitated proteins were resolved on 7.5% SDS-PAGE and then transferred onto a nitrocellulose membrane. Membrane was blocked for 15 min at room temperature by 10% nonfat dry milk in TBS-T and probed with anti-phosphotyrosine antibodies (clone 4G10, Upstate Biotechnology) diluted 1:1000 in TBS-T containing 3% nonfat dry milk for 2 hours at room temperature. The membranes were washed 3 times for 5 min in TBS-T and incubated in the 1:3000 solution of secondary anti-mouse antibodies conjugated with HRP (DAKO) diluted in TBS-T containing 3% nonfat dry milk for 45 min at room temperature. Membranes were washed with TBS-T for 5×10 min. Stained bands were visualized with ECL reagent (Pierce) using LAS3000 imaging program. To confirm equal loading of the proteins, membranes were probed with anti-RET C-20 antibodies (1:500, Santa-Cruz Biotechnology, inc.) after stripping. We used secondary anti-goat antibodies conjugated with HRP (1:1500, DAKO) to detect C-20.

[2] = molecular target: T2, GFRα3/RET (Homo sapiens, UniProt O60609+P07949); test: RET phosphorylation by BT compounds, IP and Western blotting (FIG. 6B); format: cell-based; details: 100 μM, 15 min; MG87 RET fibroblasts transfected with GFRα3
T2 construct: Full-length human GFRα3 cDNA (Wang et al., 2006); expressed in transfected cells; host or cells: MG87RET murine fibroblasts transiently transfected with GFRα3
T2 sequence (O60609 32-374 limits assumed): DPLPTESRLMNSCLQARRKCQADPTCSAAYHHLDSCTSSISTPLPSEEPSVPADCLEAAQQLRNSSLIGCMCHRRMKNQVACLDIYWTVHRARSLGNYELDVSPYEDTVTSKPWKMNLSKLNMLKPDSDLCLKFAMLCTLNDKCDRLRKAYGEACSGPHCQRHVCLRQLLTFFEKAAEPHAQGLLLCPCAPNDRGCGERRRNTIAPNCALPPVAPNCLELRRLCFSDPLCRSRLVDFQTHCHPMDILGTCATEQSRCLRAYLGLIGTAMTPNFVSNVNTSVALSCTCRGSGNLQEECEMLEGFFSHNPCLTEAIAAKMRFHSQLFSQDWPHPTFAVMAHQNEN
T2 sequence (P07949 29-1114): as the sequence (P07949 29-1114, species assumed) above
Protocol: as §1

[3] = test system: 6-OHDA-treated rats; test: Side effects / toxic effects after intrastriatal injection in 6-OHDA-treated rats; format: in vivo; details: injected intrastriatally
Protocol: GDNF mimetics compounds, GDNF or vehicle is administered to the striatum at 3 weeks after the exposure to the neurotoxin 6-OHDA. The selective damage to dopaminergic neurons in the SNc, as well as striatal levels of dopamine and its metabolites are evaluated 12 weeks after the injection of 6-OHDA with tyrosine hydroxylase (TH) immunohistochemistry and HPLC, respectively. In addition, the behavioral impairment of rats is evaluated by forelimb asymmetry test (cylinder test), amphetamine induced rotation asymmetry test and Y-maze test for stereotypic spontaneous rotation deficits.
On day 21, rats are re-anesthetized with 5% isoflurane (in 70% N2O and 30% O2; flow 300 ml/min) and placed in a stereotactic frame. During the operation concentration of anesthetic is reduced to 1-1.5%. The rectal temperature is maintained at 37.0±1.0° C. with a homeothermic blanket system. The right brain hemisphere is exposed through a small craniectomy to the skull. A stereotaxic injection of the test compound, GDNF or vehicle is made into the right striatum. Each dosing solution is infused at a speed of 1 μl/min and is equally distributed between 4 sites at the following coordinates: AP+1.0, ML+2.8, DV−6.0, −5.5, −5.0 and −4.4 mm. The cannula is left in place for another 5 min before being withdrawn. The hole in the skull is subsequently filled with repair material and the skin is closed and disinfected. The rats are allowed to recover from anesthesia and are carefully monitored for possible post surgical complications. The animals are returned to the home cages with ad libitum access to food and water.
Animals are monitored daily by laboratory personnel. […] Definitions of acceptable endpoints include: no spontaneous movements and inability to drink or eat in 24-h observation period, massive bleeding, spontaneous inflammation, missing anatomy, swelling or tumors larger than 20 mm, and inability to right itself in 30 sec period.

[4] = test system: RET-expressing reporter cell line (RET alone); test: Reporter-gene luciferase activity assay, dose-response (FIG. 5); format: cell-based; details: cells expressing RET alone; 1-50 μM, 24 h
Protocol: Generation of stable cell lines. MG87RET murine fibroblast were plated on […] dishes and transfected with 4 μg of G4-Luc, Gal4-Elk (Baloh et al., 2000) and GFRα1 expressing plasmid (“αLUC” cells) or empty vector (“NOα” cells) containing neomycin-resistance gene in ratio 4:1:1 using Lipofectamine 2000 (Invitrogen) for DNA delivery as described by manufacturer. The following day, cells were trypsinized and plated in low density on 10-cm tissue culture dishes. Stable transformants were selected in the presence of 500-750 μg/ml geneticin (Invitrogen). Established cell lines were maintained in DMEM, 10% fetal bovine serum (FBS), 100 μg/ml Normocin (Invivogene), 2 μg/ml of puromycin, 500 μg/ml of geneticin, 15 mM HEPES, pH 7.2. Pathdetect Elk-1 system and human GFRα1-expressing plasmid (“Strat-Luc” cells) or empty vector (control cell line “NOStratis”) cells were selected and maintained in the DMEM, 10% FBS, 100 μg/ml Normocin (Invivogene), 2 μg/ml of puromycin, 500 μg/ml of G418, 2 μg/ml of blasticidin S, 15 mM HEPES, pH 7.2.
Cells were plated on 96-well plates (or 384-well) in cell density 20 000 (or 5 000 for 384-well format) cells per well in DMEM, 10% FBS, 100 μg/ml Normocin, 2 μg/ml puromycin, 500 μg/ml of G418, 15 mM HEPES, pH 7.2 one day before assay. The following day, the compounds were added to a final concentration of 1-50 μM. Structures of the compounds are shown in the description of FIG. 5, above. Cells were allowed to produce luciferase for 24 h, then lysed in 20 μl of 1×Cell culture lysis reagent (Promega) and freeze-thawed once to ensure complete lysis. Then 5 μl of the lysate was mixed (on ice) with 20 μl of luciferase assay substrate (Promega) in a well of black Isoplate (PerkinElmer). Luminescence was counted on MicroBeta 2 counter (PerkinElmer) twice. Data are presented as fold induction, where the corresponding concentration of DMSO was used as a reference.

Compound | RET phosphorylation via GFRα1 [1] | RET phosphorylation via GFRα3 [2] | toxic effects in behavioral assays [3] | induction of luciferase expression [4]
COc1cc2c(cc1OC)CN(S(=O)(=O)c1ccc(OC)c(N3CCN(C(=O)c4cc(F)ccc4C(F)(F)F)CC3)c1)CC2 [BT18] | likely the weaker GFRα1/RET agonists | likely the weaker GFRα3/RET agonists | did not cause toxic effects | –
COc1ccc(S(=O)(=O)N2CCc3ccccc3C2)cc1N1CCN(C(=O)c2cc(F)ccc2C(F)(F)F)CC1 [BT16] | strongly activated RET | likely the weaker GFRα3/RET agonists | did not cause toxic effects | No significant effect
CCN(CC)S(=O)(=O)c1ccc(OC)c(N2CCN(C(=O)c3cc(F)ccc3C(F)(F)F)CC2)c1 [BT13] | strongly activated RET | strongly activated RET | did not cause toxic effects | No significant effect
